Several values for one entry are separate records, joined by “and”; a condition that tells them apart may be missing. Identical values can stand only once. Inconclusive results and toxic doses are left out. How the source made its calls: active means survival T/C of 150% or more; inactive means T/C below 125% in these data. Non-standard residues stand in square brackets, D forms with d. Residues, ends and D or L forms follow the SMILES beside them. ξ: configuration not given here. *: point of attachment. ξE = NC(CCC(=O)O)C(=O)O; Cbz = O=C(OCc1ccccc1)*; OBn = c1ccc(CO*)cc1
Test system: CD2F1 mice, L1210 leukemia ip, survival T/C
Experiment: NCI In Vivo Anticancer Drug Screen. Data for tumor model L1210 Leukemia (intraperitoneal) in CD2F1 (CDF1) mice
Conditions: higher = longer survival
Method in brief: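 Transplantable tumor in mice; compound-treated vs vehicle-treated groups. Read-out = treated/control ratio of the measured endpoint.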

[1] = endpoint: mean survival time, dose: 100.0 mg/kg/injection, schedule: Q01DX009 (ip), vehicle: saline with Tween-80
[2] = endpoint: mean survival time, dose: 200.0 mg/kg/injection, schedule: Q01DX009 (ip), vehicle: saline with Tween-80
[3] = endpoint: mean survival time, dose: 400.0 mg/kg/injection, schedule: Q01DX009 (ip), vehicle: saline with Tween-80
[4] = endpoint: mean survival time, dose: 100.0 mg/kg/injection, schedule: Q04DX003 (ip), vehicle: saline with Tween-80
[5] = endpoint: mean survival time, dose: 200.0 mg/kg/injection, schedule: Q04DX003 (ip), vehicle: saline with Tween-80
[6] = endpoint: mean survival time, dose: 400.0 mg/kg/injection, schedule: Q04DX003 (ip), vehicle: saline with Tween-80
[7] = endpoint: mean survival time, dose: 12.5 mg/kg/injection, schedule: Q01DX005 (ip), vehicle: distilled water + Tween-80
[8] = endpoint: mean survival time, dose: 25.0 mg/kg/injection, schedule: Q01DX005 (ip), vehicle: distilled water + Tween-80
[9] = endpoint: mean survival time, dose: 50.0 mg/kg/injection, schedule: Q01DX005 (ip), vehicle: distilled water + Tween-80
[10] = endpoint: mean survival time, dose: 100.0 mg/kg/injection, schedule: Q01DX005 (ip), vehicle: distilled water + Tween-80
[11] = endpoint: mean survival time, dose: 200.0 mg/kg/injection, schedule: Q01DX005 (ip), vehicle: distilled water + Tween-80
[12] = endpoint: mean survival time, dose: 100.0 mg/kg/injection, schedule: Q01DX001 (ip), vehicle: Klucel (hydroxypropylcellulose) (HPC)
[13] = endpoint: mean survival time, dose: 200.0 mg/kg/injection, schedule: Q01DX001 (ip), vehicle: Klucel (hydroxypropylcellulose) (HPC)
[14] = endpoint: mean survival time, dose: 400.0 mg/kg/injection, schedule: Q01DX001 (ip), vehicle: Klucel (hydroxypropylcellulose) (HPC)
[15] = endpoint: mean survival time, dose: 75.0 mg/kg/injection, schedule: Q01DX001 (ip), vehicle: other
[16] = endpoint: mean survival time, dose: 100.0 mg/kg/injection, schedule: Q04DX003 (ip), vehicle: saline
[17] = endpoint: mean survival time, dose: 100.0 mg/kg/injection, schedule: Q01DX009 (ip), vehicle: Klucel (hydroxypropylcellulose) (HPC)
[18] = endpoint: mean survival time, dose: 200.0 mg/kg/injection, schedule: Q01DX009 (ip), vehicle: Klucel (hydroxypropylcellulose) (HPC)
[19] = endpoint: mean survival time, dose: 12.5 mg/kg/injection, schedule: Q01DX005 (ip), vehicle: other
[20] = endpoint: mean survival time, dose: 25.0 mg/kg/injection, schedule: Q01DX005 (ip), vehicle: other
[21] = endpoint: mean survival time, dose: 50.0 mg/kg/injection, schedule: Q01DX005 (ip), vehicle: other
[22] = endpoint: mean survival time, dose: 25.0 mg/kg/injection, schedule: Q01DX009 (ip), vehicle: saline with Tween-80
[23] = endpoint: mean survival time, dose: 50.0 mg/kg/injection, schedule: Q01DX009 (ip), vehicle: saline with Tween-80
[24] = endpoint: mean survival time, dose: 100.0 mg/kg/injection, schedule: Q04DX002 (ip), vehicle: saline with Tween-80
[25] = endpoint: mean survival time, dose: 200.0 mg/kg/injection, schedule: Q04DX002 (ip), vehicle: saline with Tween-80
[26] = endpoint: mean survival time, dose: 400.0 mg/kg/injection, schedule: Q04DX002 (ip), vehicle: saline with Tween-80

Measured: T/C

C=C1CC(C)(Cn2cnc3c(=O)[nH]cnc32)OC1=O (centres undefined)
inactive: endpoint: median survival time, dose: 3.13 mg/kg/injection, schedule: Q01DX005 (ip), vehicle: water 94 % of control | endpoint: median survival time, dose: 6.25 mg/kg/injection, schedule: Q01DX005 (ip), vehicle: water 94 % of control | endpoint: median survival time, dose: 12.5 mg/kg/injection, schedule: Q01DX005 (ip), vehicle: water 98 % of control | endpoint: median survival time, dose: 25.0 mg/kg/injection, schedule: Q01DX005 (ip), vehicle: water 92 % of control

CNC(=O)NNC(=O)c1ccccc1Cl
inactive: [1] 88 % of control | [2] 108 % of control | [3] 98 % of control

CCOC(=O)CCC1(C(=O)OC)C(=O)CCCCCCC1C(=O)OC (centres undefined)
inactive: [1] 102 % of control | [2] 101 % of control | [3] 93 % of control

CC(C(=O)O)=C(c1ccccc1)c1ccccc1
inactive: [4] 90 % of control | [5] 93 % of control | [6] 87 % of control

c1ccc(NCc2nc3ccccc3[nH]2)cc1
inactive: endpoint: mean survival time, dose: 12.5 mg/kg/injection, schedule: Q01DX005 (ip), vehicle: water 101 % of control | endpoint: mean survival time, dose: 25.0 mg/kg/injection, schedule: Q01DX005 (ip), vehicle: water 102 % of control

CC(=O)O/C=C/C=C/C=N/c1nc2c(c(=O)n(C)c(=O)n2C)n1C
inactive: [7] 105 % of control | [8] 91 % of control | [9] 94 % of control | [10] 103 % of control | [11] 97 % of control

CC1C(C(=O)c2ccc(-c3ccccc3)cc2)N1c1ccccc1 (centres undefined)
inactive: [12] 94 % of control | [13] 101 % of control | [14] 86 % of control

CC(C)(CO)N=Cc1ccccc1F
inactive: [15] 97 % of control | endpoint: mean survival time, dose: 150.0 mg/kg/injection, schedule: Q01DX001 (ip), vehicle: other 96 % of control | endpoint: mean survival time, dose: 300.0 mg/kg/injection, schedule: Q01DX001 (ip), vehicle: other 93 % of control

O=C1Cc2cccc(=O)c(O)c2C(=O)O1
inactive: endpoint: mean survival time, dose: 25.0 mg/kg/injection, schedule: Q04DX003 (ip), vehicle: saline 96 % of control | endpoint: mean survival time, dose: 50.0 mg/kg/injection, schedule: Q04DX003 (ip), vehicle: saline 104 % of control | [16] 94 % of control

CC(=O)OC1CCC2(C)C(=CC=C3C2CCC2(C)C3CCC2C(C)/C=C/C(C)C(C)C)C1 (centres undefined)
inactive: endpoint: mean survival time, dose: 50.0 mg/kg/injection, schedule: Q01DX009 (ip), vehicle: Klucel (hydroxypropylcellulose) (HPC) 89 % of control | [17] 101 % of control | [18] 93 % of control

CC(C)(C)OCC(N)C(=O)OC(C)(C)C (centres undefined)
inactive: [16] 93 % of control | endpoint: mean survival time, dose: 200.0 mg/kg/injection, schedule: Q04DX003 (ip), vehicle: saline 103 % of control | endpoint: mean survival time, dose: 400.0 mg/kg/injection, schedule: Q04DX003 (ip), vehicle: saline 96 % of control

O=c1[nH]cnc2c1ncn2C1OC(CO)C(O)C1O.[Ag+] (centres undefined)
inactive: [19] 92 % of control | [20] 98 % of control | [21] 87 % of control

O=C(N/N=C/c1ccccc1)c1ccc(Cl)cc1Cl
inactive: [12] 100 % of control | [17] 100 % of control | [13] 97 % of control | [18] 94 % of control | [14] 101 % of control | endpoint: mean survival time, dose: 400.0 mg/kg/injection, schedule: Q01DX009 (ip), vehicle: Klucel (hydroxypropylcellulose) (HPC) 91 % of control

CCCSCC
inactive: [22] 98 % of control | [23] 106 % of control | [1] 95 % of control and 96 % of control

O=C(/C=C1/OCCN1C(=O)Nc1ccccc1)Nc1ccccc1
inactive: [4] 107 % of control | [5] 103 % of control | [6] 97 % of control

O=P(Oc1ccccc1)(c1ccccc1)c1ccccc1
inactive: [4] 109 % of control | [5] 95 % of control | [6] 109 % of control

CCCCCCCCCCCCCCCC(=O)Nc1ccc(CC)cc1
inactive: [24] 103 % of control | [25] 91 % of control | [26] 95 % of control

O=C(CNC(=O)OCc1ccccc1)NCC(=O)NC(CCC(=O)OCc1ccccc1)C(=O)OCc1ccccc1 (stereo not drawn) (Cbz-Gly-Gly-[ξE](OBn)-OBn)
inactive: endpoint: mean survival time, dose: 100.0 mg/kg/injection, schedule: Q04DX003 (ip), vehicle: other 95 % of control | endpoint: mean survival time, dose: 200.0 mg/kg/injection, schedule: Q04DX003 (ip), vehicle: other 91 % of control | endpoint: mean survival time, dose: 400.0 mg/kg/injection, schedule: Q04DX003 (ip), vehicle: other 95 % of control

OC(c1ccccc1)(c1ccccc1)c1ccccc1
inactive: [4] 101 % of control | [5] 98 % of control | [6] 98 % of control

Cc1c(C=[N+]2CCCCC2)c2ccccc2n1C
inactive: endpoint: mean survival time, dose: 12.5 mg/kg/injection, schedule: Q01DX009 (ip), vehicle: saline with Tween-80 95 % of control | [22] 95 % of control | [23] 93 % of control | [1] 87 % of control | [24] 100 % of control | [26] 112 % of control

COC1OC(COC(C)=O)C(n2cnc3c2c(=O)n(C)c(=O)n3C)C=C1NC(C)=O (centres undefined)
inactive: [7] 94 % of control | [8] 96 % of control | [9] 90 % of control | [10] 94 % of control | [11] 108 % of control

O=C1CSC(=S)N1/N=C/c1ccc(Cl)s1
inactive: [15] 96 % of control

Cc1oc(N)c(C(N)=O)c1C
inactive: endpoint: mean survival time, dose: 100.0 mg/kg/injection, schedule: Q01DX009 (ip), vehicle: saline sonified 103 % of control | [4] 100 % of control | endpoint: mean survival time, dose: 200.0 mg/kg/injection, schedule: Q01DX009 (ip), vehicle: saline sonified 93 % of control | [5] 100 % of control | endpoint: mean survival time, dose: 400.0 mg/kg/injection, schedule: Q01DX009 (ip), vehicle: saline sonified 92 % of control | [6] 94 % of control

COC(=O)/C(C#N)=C\c1ccccc1
inactive: [23] 95 % of control | [1] 95 % of control | [2] 92 % of control

O=NN1Cc2ccccc2C1=O
inactive: [1] 96 % of control | [2] 94 % of control | [3] 94 % of control

Cn1c(=O)c2[nH]c(-c3ccccc3[N+](=O)[O-])nc2n(C)c1=O
inactive: [19] 97 % of control | [20] 94 % of control | [21] 90 % of control | endpoint: mean survival time, dose: 100.0 mg/kg/injection, schedule: Q01DX005 (ip), vehicle: other 96 % of control | endpoint: mean survival time, dose: 200.0 mg/kg/injection, schedule: Q01DX005 (ip), vehicle: other 94 % of control

NS(=O)(=O)c1cccc(C(=O)O)c1
inactive: endpoint: mean survival time, dose: 100.0 mg/kg/injection, schedule: Q01DX001 (ip), vehicle: saline with Tween-80 98 % of control | endpoint: mean survival time, dose: 200.0 mg/kg/injection, schedule: Q01DX001 (ip), vehicle: saline with Tween-80 94 % of control | endpoint: mean survival time, dose: 400.0 mg/kg/injection, schedule: Q01DX001 (ip), vehicle: saline with Tween-80 98 % of control

O=CNc1ccc2c(c1)C(O)c1ccccc1-2 (centres undefined)
inactive: endpoint: mean survival time, dose: 62.5 mg/kg/injection, schedule: Q04DX003 (ip), vehicle: saline with Tween-80 103 % of control | endpoint: mean survival time, dose: 125.0 mg/kg/injection, schedule: Q04DX003 (ip), vehicle: saline with Tween-80 98 % of control | endpoint: mean survival time, dose: 250.0 mg/kg/injection, schedule: Q04DX003 (ip), vehicle: saline with Tween-80 97 % of control

Cc1cc2ccc(Cl)cc2[nH]1
inactive: endpoint: mean survival time, dose: 100.0 mg/kg/injection, schedule: Q01DX001 (ip), vehicle: other 104 % of control | endpoint: mean survival time, dose: 200.0 mg/kg/injection, schedule: Q01DX001 (ip), vehicle: other 104 % of control

O=C(NC(=O)c1cn(C2OC(CO)C(O)C2O)nn1)Nc1ccc(Cl)cc1 (centres undefined)
inactive: [19] 93 % of control | [21] 90 % of control

CCCCCCCC/C=C\CCCCCCCC(=O)OCCCCC
inactive: [24] 87 % of control | [25] 95 % of control | [26] 106 % of control

From PubChem BioAssay AID256 (DTP/NCI, 2004)
